Values of other authors in patent US20250281392A1, “TOPICAL DELIVERY OF EPINEPHRINE AND PRODRUG COMPOSITIONS” (Aquestive Therapeutics, Inc., priority 2024, published 2025).

Conditions: cited from earlier work

CCOCCOCCO [Diethylene glycol monoethyl ether]
Log P (octanol:water): −0.43
